# US10238688B2, “Combination therapies for bladder cancer” (GENEDIA BIOTECH CO. LTD., priority 2015, dated 2019)
# Key:
# [1] = system: J-82; experiment: MTT cell survival / IC50, J-82 cells; format: cell-based, human; conditions: J82; Table S3; ng/ml: Pi 40, Pa 160, EH 250, Ci 1500, Mi 200; 1=Ci/Mi, 2=EH/Ci/Mi, 3=Pa/Ci/Mi, 4=Pi/Ci/Mi
# Method: The clinical grade of the chemotherapeutics (NCI Dictionary of Cancer Terms) was provided by the First Affiliated Hospital of Harbin Medical University: Pirarubicin (Pi, Wanle, Shenzhen), Paclitaxel (Pa, Taiji, Sichuan), Adriamycin (Ad, Pfizer, Jiangsu), Epirubicin Hydrochloride (EH, Haizheng, Zhejiang), Hydroxycamptothecin (Hy, Lishizhen, Hubei), Cisplatin (Ci, Haosen, Jiangsu), Gemcitabine (Ge, Haosen, Jiangsu) and Mitomycin (Mi, Haizheng, Zhejiang). The drug induced cell death was determined by a thiazolyl […] (MTT, 490 nm reading) based cell proliferation assay in the cultured cells following treatment by various concentrations of drugs for 72 hours. The relative chemoresistance to each drug of all cell lines was calculated with the lowest IC50 as a reference. The overall chemoresistance of each cell line was described as “chemoresistance index”, the numerator of the total relative IC50 to all the drugs over the number of drugs to rank the overall resistance state of each cell line to the six chemotherapeutics collectively.
# The relative IC50 (fold) of each drug of all nine cell lines was normalized to the lowest IC50 in the most sensitive cell line (FIG. 2G), to describe the single drug resistance of cell lines. The overall chemoresistance of each cell line, a “chemoresistance index” (the numerator of the total relative IC50 over the number of drugs) (FIG. 2G) were calculated to rank the overall resistance state of each cell line to this six chemotherapeutics.
# Twenty six-drug combinations at the indicated doses were initially generated through a random number generator (using MATLAB MathWorks©, Natick, Mass., U.S.) (The upper half of Table 1). The cell survival (% over the not drug control) of treated cells was determined and then used for a calculation of the average cumulative cell survival (%, ACS: the sum of cell survival (%) per combination divided by the number of cell lines tested). ACS<30% was used to separate the effective from the not-effective combinations.
# [2] = system: DNA Damage response pathway; experiment: Cignal Finder dual-luciferase pathway reporter, DNA Damage response (5637, Biu87, UM-UC-3, H-bc, SV-HUC-1); format: cell-based, human; set-up: key to Relative activity, DNA Damage reporter: firefly/renilla ratio, background (negative control) subtracted; conditions: for Relative activity, DNA Damage reporter: luc/Renluc relative to negative control reporter, single drug at 4 folds vs EH/Ci/Mi combination
# Method: (§1) The pathway analysis was performed with Qiagen's Cignal Finder Pathway Reporter Array systems according to the manufacturer's instructions. The pathway-focused dual-luciferase reporter construct was a mixture of an inducible transcription factor responsive firefly luciferase reporter and constitutively expressing renilla construct. Transcriptional response element (TRE) sequence response elements to each specific transcriptional factor triggered by the different signaling pathways are positioned before the TATA box of firefly luciferase reporter gene. The extent of activity of the reporter reflects the level of activity of the particular signaling pathway. CMV controlled renilla expression vector is co-transfected into the cell as an internal control. Non-inducible reporter construct that lacks the transcriptional factor binding sequence and could not be induced by any transcription factors is used as a negative control. Cells transfected with CMV directed firefly luciferase reporter gene serve as a positive control. Briefly, cells seeded in 6-well plates were transfected with Cignal finder pathway arrays according to the manufacturer's instructions (Qiagen). Then cells were seeded onto 96-well plates. […] After 6 h of incubation with the different drugs at 37° C., cells were lysed and a dual luciferase assay (for firefly and renilla luciferase) was performed using a PromegaGloMax 20/20 illuminometer. The firefly luciferase activities were normalized over the renilla luciferase activities after background activity determined by luciferase activities of negative controls was subtracted. A triple test of cell survival under these drug doses was also performed by MTT assay following 18 h incubation at 37° C. […]
# [3] = system: Myc/Max pathway; experiment: Cignal Finder dual-luciferase pathway reporter, Myc/Max; format: cell-based, human; conditions: for Relative activity, Myc/Max reporter: luc/Renluc relative to negative control reporter, single drug at 4 folds vs EH/Ci/Mi combination
# Method: as §1
# [4] = system: nine cancer-associated signaling pathways; experiment: Pearson correlation of collective drug-triggered pathway activities (single drug versus EH/Ci/Mi regimen)
# Source text: To calculate the correlation coefficients between the two cell lines, the R language statistics function “cor{stats}” was used to generate the correlation matrix between multiple cell lines.
# This example then determined the correlation coefficient between the overall activity of these nine pathways and the chemoresistance state of these five cell lines. […] The overall state of activity of these pathways in each cell line are summarized (FIG. 4E) and the correlation coefficient of each pair of cell lines is calculated (FIG. 4F).
# [5] = system: Notch pathway; experiment: Cignal Finder dual-luciferase pathway reporter, Notch; format: cell-based, human; set-up: key to Relative activity, Notch reporter: firefly/renilla ratio, background (negative control) subtracted; conditions: for Relative activity, Notch reporter: luc/Renluc relative to negative control reporter, single drug at 4 folds vs EH/Ci/Mi combination;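 as to digitalized pathway activity, Notch: code −1 means repressed below 0.5-fold of 5637 cells or no-drug control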
# Method: The pathway analysis was performed with Qiagen's Cignal Finder Pathway Reporter Array systems according to the manufacturer's instructions. The pathway-focused dual-luciferase reporter construct was a mixture of an inducible transcription factor responsive firefly luciferase reporter and constitutively expressing renilla construct. Transcriptional response element (TRE) sequence response elements to each specific transcriptional factor triggered by the different signaling pathways are positioned before the TATA box of firefly luciferase reporter gene. The extent of activity of the reporter reflects the level of activity of the particular signaling pathway. CMV controlled renilla expression vector is co-transfected into the cell as an internal control. Non-inducible reporter construct that lacks the transcriptional factor binding sequence and could not be induced by any transcription factors is used as a negative control. Cells transfected with CMV directed firefly luciferase reporter gene serve as a positive control. Briefly, cells seeded in 6-well plates were transfected with Cignal finder pathway arrays according to the manufacturer's instructions (Qiagen). Then cells were seeded onto 96-well plates. Ci (6000 ng/mL), Mi (800 ng/mL), or EH (1000 ng/mL) and Ci/Mi/EH combination (Ci, 1500 ng/mL, Mi, 800 ng/mL and EH, 1000 ng/m L) were then added to the cells 24 h post-transfection. After 6 h of incubation with the different drugs at 37° C., cells were lysed and a dual luciferase assay (for firefly and renilla luciferase) was performed using a PromegaGloMax 20/20 illuminometer. The firefly luciferase activities were normalized over the renilla luciferase activities after background activity determined by luciferase activities of negative controls was subtracted. A triple test of cell survival under these drug doses was also performed by MTT assay following 18 h incubation at 37° C. […]
smiles,measurement,setting,value
"N.N.[Cl][Pt][Cl] [Ci, (SP-4-2)-diamminedichloroplatinum(II)]",Cell survival (%),[1],15.42%
same,"relative drug trigged pathway activity over the no-drug level, DNA Damage",[2]; 5637 cells,2.17 fold
same,"Relative activity, DNA Damage reporter",[2]; 5637 cells,0.48
same,"digitalized pathway activity, DNA Damage",[2]; Biu87 cells,0 (null (0) if neither of the above holds)
same,"relative drug trigged pathway activity over the no-drug level, DNA Damage",[2]; Biu87 cells,0.63 fold
same,"Relative activity, DNA Damage reporter",[2]; Biu87 cells,0.94
same,"relative drug trigged pathway activity over the no-drug level, DNA Damage",[2]; H-bc cells,1.69 fold
same,"Relative activity, DNA Damage reporter",[2]; H-bc cells,4.19
same,"relative drug trigged pathway activity over the no-drug level, DNA Damage",[2]; SV-HUC-1 cells,1.54 fold
same,"Relative activity, DNA Damage reporter",[2]; SV-HUC-1 cells,3.70
same,"digitalized pathway activity, DNA Damage",[2]; UM-UC-3 cells,0 (null (0) if neither of the above holds)
same,"Relative activity, DNA Damage reporter",[2]; UM-UC-3 cells,2.38
same,"relative drug trigged pathway activity over the no-drug level, DNA Damage",[2]; Um-Uc-3 cells,0.68 fold
same,"digitalized pathway activity, Myc/Max",[3]; 5637 cells,0 (null (0) if neither of the above holds)
same,"relative drug trigged pathway activity over the no-drug level, Myc/Max",[3]; 5637 cells,1.05 fold
same,"Relative activity, Myc/Max reporter",[3]; 5637 cells,11.64
same,"digitalized pathway activity, Myc/Max",[3]; Biu87 cells,0 (null (0) if neither of the above holds)
same,"relative drug trigged pathway activity over the no-drug level, Myc/Max",[3]; Biu87 cells,0.56 fold
same,"Relative activity, Myc/Max reporter",[3]; Biu87 cells,4.60
same,"digitalized pathway activity, Myc/Max",[3]; H-bc cells,0 (null (0) if neither of the above holds)
same,"relative drug trigged pathway activity over the no-drug level, Myc/Max",[3]; H-bc cells,1.03 fold
same,"Relative activity, Myc/Max reporter",[3]; H-bc cells,50.23
same,"digitalized pathway activity, Myc/Max",[3]; SV-HUC-1 cells,0 (null (0) if neither of the above holds)
same,"relative drug trigged pathway activity over the no-drug level, Myc/Max",[3]; SV-HUC-1 cells,1 fold
same,"Relative activity, Myc/Max reporter",[3]; SV-HUC-1 cells,109.70
same,"Relative activity, Myc/Max reporter",[3]; UM-UC-3 cells,24.42
same,"relative drug trigged pathway activity over the no-drug level, Myc/Max",[3]; Um-Uc-3 cells,0.42 fold
same,Correlation coefficients versus EH/Ci/Mi,[4]; 5637 cells,0.9177
same,Correlation coefficients versus EH/Ci/Mi,[4]; Biu87 cells,0.3273
same,Correlation coefficients versus EH/Ci/Mi,[4]; H-bc cells,0.6934
same,Correlation coefficients versus EH/Ci/Mi,[4]; SV-HUC-1 cells,1
same,Correlation coefficients versus EH/Ci/Mi,[4]; UmUc3 cells,−0.7559
same,"digitalized pathway activity, Notch",[5]; 5637 cells,0 (null (0) if neither of the above holds)
same,"relative drug trigged pathway activity over the no-drug level, Notch",[5]; 5637 cells,1.39 fold
same,"Relative activity, Notch reporter",[5]; 5637 cells,1.41
same,"relative drug trigged pathway activity over the no-drug level, Notch",[5]; Biu87 cells,0.5 fold
same,"Relative activity, Notch reporter",[5]; Biu87 cells,2.23
same,"relative drug trigged pathway activity over the no-drug level, Notch",[5]; H-bc cells,0.31 fold
same,"Relative activity, Notch reporter",[5]; H-bc cells,1.60
same,"digitalized pathway activity, Notch",[5]; SV-HUC-1 cells,0 (null (0) if neither of the above holds)
same,"relative drug trigged pathway activity over the no-drug level, Notch",[5]; SV-HUC-1 cells,1.44 fold
same,"Relative activity, Notch reporter",[5]; SV-HUC-1 cells,6.20
same,"digitalized pathway activity, Notch",[5]; UM-UC-3 cells,0 (null (0) if neither of the above holds)
same,"Relative activity, Notch reporter",[5]; UM-UC-3 cells,4.99
same,"relative drug trigged pathway activity over the no-drug level, Notch",[5]; Um-Uc-3 cells,1.01 fold
